In patent US11857536B2, “Glucokinase activator for treating diabetes with renal impairment” (HUA Medicine (Shanghai) Ltd., priority 2020, dated 2024):
Where two headings read alike, the source gives them in different places.

Assay: Phase I open-label, parallel-group, single oral dose pharmacokinetic study of dorzagliatin in ESRD and healthy subjects
Assay type: in vivo, human
Details: single 25 mg oral dose; for AUC(0-inf) / AUC(0-t) / Cmax: human, po, 25 mg; for Cmax: read-out: Cmax, LS mean
Source text: This phase I study was to access the pharmacokinetics and safety of a single dose of dorzagliatin in renally impaired and heathy subjects. The study was divided into two phases: Phase 1 having two groups (P1 and H) and Phase 2 having three groups (P2, P3, and P4). Phase 2 would start after the completion of Phase 1 and determining an increase of ≥100% in the average AUC (AUClast or AUCinf) of the ESRD subjects than that of the healthy subjects in Phase 1. The ESRD subjects of Group P1 were matched closely with the healthy subjects as to their sexes, ages (±5 yrs), and BMIs (±15%).
In Phase 1, eligible subjects were admitted to a clinical research center (CRC) on Day −2 or −1. On Day −1, the subjects had no additional food after a standard dinner for at least 10 h. In the morning of Day 1, the subjects received dorzagliatin (25 mg) orally with empty stomach. […] Blood samples were collected at the following time points: within 60 min pre-dose; and at 0.25, 0.5, 1, 1.5, 2, 2.5, 3, 4, 6, 8, 12, 24, 36, 48, and 72 h post-dose. Urine samples for the pharmacokinetic (PK) analysis were collected at the following time points: within 60 min pre-dose; and at 0˜4, 4˜8, 8˜12, 12˜24, 24˜36, 36˜48, and 48˜72 h post-dose. The samples were analyzed using LC-MS/MS. The plasma concentration-time data for dorzagliatin were analyzed using a non-compartmental model to obtain PK parameters, including Cmax, AUClast, AUCinf, Cmax,u, AUClast,u, and AUCinf,u. An ANOVA analysis was performed on the data between H and P1 groups.

Cmax, u, LS mean (Group H (healthy), fasted): 29.5 ng/mL
AUClast, LS mean (Group H (healthy), fasted, plasma): 1857 ng·h/mL
Cmax, u, LS mean (Group P1 (ESRD), fasted): 27.5 ng/mL
AUC(0-inf) (plasma, Group H (healthy), fasted, plasma, read-out: AUCinf, LS mean): 1890 ng·h/mL
AUC(0-inf) (plasma, Group H (healthy), fasted, read-out: AUCinf, u, LS mean): 126 ng·h/mL
AUC(0-t) (plasma, Group H (healthy), fasted, read-out: AUClast, u, LS mean): 124 ng·h/mL
Cmax (plasma, Group H (healthy, eGFR ≥90), fasted, plasma): 442 ng/mL
AUC(0-inf) (plasma, Group P1 (ESRD), fasted, plasma, read-out: AUCinf, LS mean): 2070 ng·h/mL
AUC(0-t) (plasma, Group P1 (ESRD), fasted, plasma, read-out: AUClast, LS mean): 2060 ng·h/mL
AUC(0-inf) (plasma, Group P1 (ESRD), fasted, read-out: AUCinf, u, LS mean): 163 ng·h/mL
AUC(0-t) (plasma, Group P1 (ESRD), fasted, read-out: AUClast, u, LS mean): 162 ng·h/mL
Cmax (plasma, Group P1 (ESRD, eGFR <15, no dialysis), fasted, plasma): 356 ng/mL
Cmax, u GMR (P1/H) (ratio ESRD/healthy): 0.93
AUCinf in ESRD subjects (Group P1) compared to healthy subjects (Group H), in words: substantially the same
Cmax in ESRD subjects (Group P1) compared to healthy subjects (Group H), in words: slightly decreased
Difference in AUC between Groups H and P1, in words (ANOVA, preset criterion AUC increase >100% not met): no significant difference
Structure (SMILES): CC(C)C[C@@H](C(=O)Nc1ccn(C[C@@H](O)CO)n1)N1CC(Oc2ccccc2Cl)=CC1=O [dorzagliatin, (S)-2-(4-(2-chlorophenoxy)-2-oxo-2,5-dihydro-1H-pyrrol-1-yl)-N-(1-((R)-2,3-dihydroxypropyl)-1H-pyrazol-3-yl)-4-methylpentanamide]
